How the values were obtained:
Format in all cases: cell-based, mouse
[1] = test system: Hsp47 mRNA; experiment: siRNA treatment of myofibroblasts from carbon tetrachloride-induced fibrotic liver, Hsp47 mRNA by real-time RT-PCR
Procedure: (§1) The mRNA expression levels of P4HA3 etc. in the examples of the present specification were quantified as follows. The concentration of purified RNA was determined using a microspectrophotometer DS-11 (DeNovix), and reverse transcription to cDNA was performed using a High Capacity cDNA Reverse Transcription Kit (Applied Biosystems). Quantification of mRNA was performed according to the protocol of Luna Universal qPCR Master Mix (New England BioLabs), with DNA polymerase activation at 95° C. for 60 seconds, followed by 45 cycles of cDNA denaturation at 95° C. for 15 seconds and extension at 60° C. for 30 seconds. Analysis was performed by the AACt method using GAPDH as an internal standard. Mouse Cyp7al probe was purchased from Applied Biosystems. […]
As in Example 3, the effect of suppressing P4HA3 mRNA expression on the mRNA expression of other fibrosis-related factors was examined in cultured myofibroblasts isolated from the liver 4 weeks after the start of carbon tetrachloride administration. […] After that, the purity of the isolated myofibroblasts was measured using FACS verse, and almost all of the CD45-negative cells after MACS were positive for α-SMA, a myofibroblast marker, and almost no contamination with blood cells was observed. […]

[2] = test system: P4HA3 mRNA; experiment: siRNA treatment of myofibroblasts from carbon tetrachloride-induced fibrotic liver, P4HA3 mRNA by real-time RT-PCR; conditions: for mRNA expression of P4HA3: myofibroblasts from transiently fibrotic liver, siRNA 3.125 nM, FIG. 9
Procedure: (§2) The mRNA expression levels of P4HA3 etc. in the examples of the present specification were quantified as follows. The concentration of purified RNA was determined using a microspectrophotometer DS-11 (DeNovix), and reverse transcription to cDNA was performed using a High Capacity cDNA Reverse Transcription Kit (Applied Biosystems). Quantification of mRNA was performed according to the protocol of Luna Universal qPCR Master Mix (New England BioLabs), with DNA polymerase activation at 95° C. for 60 seconds, followed by 45 cycles of cDNA denaturation at 95° C. for 15 seconds and extension at 60° C. for 30 seconds. Analysis was performed by the AACt method using GAPDH as an internal standard. Mouse Cyp7al probe was purchased from Applied Biosystems. Primers and probes for mouse α-smooth muscle actin (α-SMA), CD68, 1α1 collagen (Col1α1), 1α2 collagen (Col1α2), 1α3 collagen (Col1α3), 6α1 collagen (Col6α1), 8α1 collagen (Co81α1), GAPDH (glyceraldehyde-3-phosphate dehydrogenase), heat shock protein 47 (Hsp47), prolyl 4-hydroxylase alphal subunit (P4HA1), prolyl 4-hydroxylase alpha2 subunit (P4HA2), and prolyl 4-hydroxylase alpha3 subunit (P4HA3) were purchased from Sigma-Aldrich.
As in Example 3, the effect of suppressing P4HA3 mRNA expression on the mRNA expression of other fibrosis-related factors was examined in cultured myofibroblasts isolated from the liver 4 weeks after the start of carbon tetrachloride administration. The liver was removed from a mouse model of carbon tetrachloride (CCl4)-induced fibrotic livers and divided into small pieces. After that, the liver pieces were washed with washing buffer [25 mM HEPES/[…]/HBSS(-)], and the cell solution containing myofibroblasts was collected by shaking the liver pieces three times for 30 min at 37° C. in . . . digestion buffer [0.1% Collagenase A/15 mM HEPES/HBSS(-)]. After that, blood cell components were removed with Red Blood Cell Lysis Buffer, and the cells were suspended in 10% FBS/1% Penicillin-Streptomycin/DMEM, and then seeded on a culture plate. After 6 hr, the medium was replaced to remove non-adherent cells and debris. After that, the cells were cultured overnight in a CO2 incubator, and non-adherent cells were again removed by washing with PBS, and adherent cells were collected using Accutase. After 20 min of reaction with CD45 antibody labeled with magnetic beads, CD45-positive blood cells were removed by MACS (magnetic cell sorting) using an LS column, and CD45-negative cells were collected as myofibroblasts. After that, the purity of the isolated myofibroblasts was measured using FACS verse, and almost all of the CD45-negative cells after MACS were positive for α-SMA, a myofibroblast marker, and almost no contamination with blood cells was observed. […]

[3] = test system: P4HA3 mRNA; experiment: P4HA3 knockdown by siRNA in myofibroblasts isolated from the infarcted area, real-time RT-PCR; conditions: siRNA 3.125 nM, versus si Ctrl, FIG. 4
Procedure: as §1
(§3) Next, the inventors investigated the effect of suppressing P4HA3 mRNA expression on the mRNA expression of other fibrosis-related factors. […] The quantification of mRNA expression levels of P4HA3, etc. in myofibroblasts after siRNA treatment was performed in the same manner as in Example 2.

[4] = test system: periostin, 1α1 collagen and 3α1 collagen mRNA expression in myofibroblasts; experiment: Effect of P4HA3 knockdown on fibrosis-related factor mRNA in myofibroblasts isolated from the infarcted area, real-time RT-PCR; conditions: siRNA 3.125 nM, versus si Ctrl, FIG. 4
Procedure: as §2
Next, the inventors investigated the effect of suppressing P4HA3 mRNA expression on the mRNA expression of other fibrosis-related factors. Myofibroblasts from the infarcted area of myocardial infarction disease model mice were cultured as described above in Nakaya, M. et al. (2017). Briefly, 3 days after coronary artery ligation, the ventricles of treated mice were digested with PBS containing 0.1% collagenase A (Roche Diagnostics) and 0.1% trypsin (Sigma-Aldrich) at 37° C. with agitation. The cells were placed on plates containing 10% FBS/DMEM overnight, and then the medium was replaced to remove non-adherent cells. The attached cells were cultured for more than 6 days and used as myofibroblasts in the following experiments. […] The quantification of mRNA expression levels of P4HA3, etc. in myofibroblasts after siRNA treatment was performed in the same manner as in Example 2.

[5] = test system: P4HA3 mRNA; experiment: P4HA3 knockdown in myofibroblasts from lungs of bleomycin-administered pulmonary fibrosis model mice, real-time RT-PCR; conditions: FIG. 11-2
Procedure: as §1, §3
From the bleomycin-administered pulmonary fibrosis model mouse prepared in the same manner as in Example 4, the lungs were removed 7 days after bleomycin administration. […] Quantification of the mRNA expression levels of Cd68, a blood cell marker, 1α1 collagen, a fibrosis-related factor, and P4HA3 was performed in the same manner as in Example 2. […]

[6] = test system: mRNA expression of fibrosis-related factors (collagens, elastin) in myofibroblasts; experiment: siRNA treatment of myofibroblasts from carbon tetrachloride-induced fibrotic liver, fibrosis-related factor mRNA by real-time RT-PCR; conditions: for mRNA expression of 1α1 collagen / mRNA expression of other fibrosis-related factors: siRNA 3.125 nM, versus si Ctrl
Procedure: as §2
As in Example 3, the effect of suppressing P4HA3 mRNA expression on the mRNA expression of other fibrosis-related factors was examined in cultured myofibroblasts isolated from the liver 4 weeks after the start of carbon tetrachloride administration. The liver was removed from a mouse model of carbon tetrachloride (CCl4)-induced fibrotic livers and divided into small pieces. After that, the liver pieces were washed with washing buffer [25 mM HEPES/[…]/HBSS(-)], and the cell solution containing myofibroblasts was collected by shaking the liver pieces three times for 30 min at 37° C. in . . . digestion buffer [0.1% Collagenase A/15 mM HEPES/HBSS(-)]. After that, blood cell components were removed with Red Blood Cell Lysis Buffer, and the cells were suspended in 10% FBS/1% Penicillin-Streptomycin/DMEM, and then seeded on a culture plate. After 6 hr, the medium was replaced to remove non-adherent cells and debris. After that, the cells were cultured overnight in a CO2 incubator, and non-adherent cells were again removed by washing with PBS, and adherent cells were collected using Accutase. After 20 min of reaction with CD45 antibody labeled with magnetic beads, CD45-positive blood cells were removed by MACS (magnetic cell sorting) using an LS column, and CD45-negative cells were collected as myofibroblasts. After that, the purity of the isolated myofibroblasts was measured using FACS verse, and almost all of the CD45-negative cells after MACS were positive for α-SMA, a myofibroblast marker, and almost no contamination with blood cells was observed. Si P4HA3 #1 and si P4HA3 #2, ThermoFisher Scientific catalog numbers 4390771 and 4390771 (Assay ID: s115723 and s115721), were added to the myofibroblast culture at a final concentration of 3.125 nM using Lipofectamine RNAiMAX (Invitrogen). In experiments in which si P4HA3 #2 was not used, such as in Example 3, si P4HA3 #1 was used as “si P4HA3”. For siRNA control experiments, Silencer Select Negative Control no. 1 siRNA (ThermoFisher Scientific, catalog number: 4390843) was used as si Ctrl. The nucleotide sequences of the sense and antisense strands of si P4HA3 #1 are listed in the sequence listing attached hereto as SEQ ID NOs: 1 and 2, respectively. The nucleotide sequences of the sense and antisense strands of si P4HA3 #2 are listed in the sequence listing attached hereto as SEQ ID NOs: 3 and 4, respectively.
Si Hsp47 and si P4HA3 #1 from Example 7 were used as knockdown reagents for Hsp47 and P4HA3, respectively. For si Hsp47, ThermoFisher Scientific catalog number 4390771 (Assay ID: s232335) was used. Separation of cell type fractions from livers collected 4 weeks after the start of carbon tetrachloride administration was performed in the same manner as in Example 6. […]

[7] = test system: 1α1, 3α1 and 14α1 collagen mRNA expression in myofibroblasts; experiment: Effect of P4HA3 knockdown on fibrosis-related factor mRNA in myofibroblasts from fibrotic lungs, real-time RT-PCR; conditions: myofibroblasts from pulmonary fibrosis model mice; versus si Ctrl; FIG. 11-2
[8] = myofibroblasts from transiently fibrotic liver, FIG. 9

Substance	effect of suppressing the mRNA expression of each target gene, si Hsp47 compared with si P4HA3 ([1]; myofibroblasts from CCl4 fibrotic liver, FIGS. 20A and B)	P4HA3 mRNA expression ([2]; myofibroblasts from damaged fibrotic liver, FIG. 21-1 B)	Hsp47 mRNA expression ([1]; myofibroblasts from damaged fibrotic liver, FIG. 21-1 A)	expression of P4HA3 mRNA [3]	expression of 1α1 collagen mRNA [4]	expression of 3α1 collagen mRNA [4]	expression of periostin mRNA [4]	expression of P4HA3 gene ([2]; myofibroblasts from CCl4 liver fibrosis model, versus si Ctrl, FIG. 25)	mRNA expression of P4HA3 ([2]; versus si Ctrl)	mRNA expression level of P4HA3 reduced to ([5]; remaining level relative to si Ctrl)	P4HA3 mRNA expression ([5]; versus si Ctrl)	effect of suppressing the mRNA expression of fibrosis-related factors, si P4HA3 compared with si Hsp47 ([6]; myofibroblasts from CCl4 fibrotic liver, 1α1, 3α1, 8α1, 14α1 collagen, FIG. 20 C to F)	effect of suppressing the mRNA expression of fibrosis-related factors, single siRNAs and combination compared ([6]; myofibroblasts from damaged fibrotic liver, 1α1, 1α2, 3α1, 8α1, 14α1 collagen, elastin, FIGS. 21-1 C, D and 21-2 A to D)	difference in mRNA expression inhibitory effect between si P4HA3 #1 and si P4HA3 #2 for 3α1 collagen and elastin [6, 8]	inhibitory activity for all mRNA expression, si P4HA3 #1 compared with si P4HA3 #2 ([6]; myofibroblasts from transiently fibrotic liver, P4HA3, collagens, elastin, FIG. 9)	mRNA expression of 1α1 collagen [6, 8]	mRNA expression of other fibrosis-related factors [6, 8]	mRNA expression level of 1α1 collagen [7]	mRNA expression level of 3α1 collagen [7]	mRNA expression level of 14α1 collagen [7]
si Hsp47: siRNA for mouse Hsp47, SEQ ID NOs: 12 and 13; ThermoFisher Scientific catalog 4390771, Assay ID s232335 (chain 1 CGGACAGGCCTGTACAACTTT; chain 2 AGTTGTACAGGCCTGTCCGGT; listed as DNA, chemistry not given here) [reference compound]	stronger effect	did not suppress P4HA3 mRNA expression at all																		
si P4HA3 #1: siRNA #1 against mouse P4HA3, sense/antisense SEQ ID NOs: 1 and 2; ThermoFisher Scientific catalog 4390771, Assay ID s115723 (sense CCACGAGTATGGACAGGAATT; antisense TTCCTGTCCATACTCGTGGAT; listed as DNA, chemistry not given here)			slightly suppressed	strongly inhibited	strongly inhibited	strongly inhibited	strongly inhibited	almost completely suppressed	inhibited	less than 5%	very strongly inhibited	stronger effect	higher effect	no significant difference	stronger inhibitory activity than si P4HA3 #2	inhibited	inhibited	reduced to a fraction of their original levels	reduced to a fraction of their original levels	reduced to a fraction of their original levels
si P4HA3 #2: siRNA #2 against mouse P4HA3, sense/antisense SEQ ID NOs: 3 and 4; ThermoFisher Scientific catalog 4390771, Assay ID s115721 (sense GCTCATAGCTCTCTACCATTT; antisense ATGGTAGAGAGCTATGAGCGG; listed as DNA, chemistry not given here)									inhibited					no significant difference		inhibited	inhibited			
